Results on four molecules are retold here after PubChem BioAssay (NCI).

Common to all, as to assay: NCI-60 cell line screen, 48 h
The test system of experiment [1] is CCRF-CEM leukemia.
Experiment [2] deals with HCT-116 colon.
For experiment [3], the system named is HOP-62 NSCLC.
For experiment [4], the system named is IGROV1 ovarian.
The test system of experiment [5] is K-562 leukemia.
Experiment [6] concerns MALME-3M melanoma.
Experiment [7] relates to MCF7 breast.
Experiment [8] has as its system OVCAR-5 ovarian.
Experiment [9] deals with SR leukemia.
For experiment [10], the system named is UO-31 renal.

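A five-concentration, 48-hour dose response in 96-well plates underlies each endpoint, interpolated linearly between surrounding concentrations. Here, GI50 denotes the concentration required for 50% inhibition of growth. TGI marks complete inhibition of growth.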

As to `CC1(C)CCC(C)(C)c2cc(NC(=O)c3ccc(C(=O)O)cc3)ccc21`, the TGI in experiment [1] was greater than 31.6 µM; in experiment [2], 55.7 µM; in [3], greater than 57.6 µM; in experiment [4], greater than 75.6 µM; in [5] it was greater than 100 µM; in [6], 60.1 µM. The TGI is greater than 83.2 µM in [7], greater than 95.2 µM in experiment [8], greater than 100 µM in experiment [9] and 39.5 µM in experiment [10].

Turning to `C=CCOC(=O)Nc1cccn([C@H](CC(C)C)C(=O)NCCC(C)C)c1=O`, the GI50 was 26.8 µM in experiment [1]; 49.6 µM in experiment [2]; greater than 100 µM in experiment [3]; 60.4 µM in [4]; 96 µM in experiment [5]; greater than 100 µM in experiment [6]. Besides, the GI50 in [7] is 99.4 µM; in experiment [8] it was greater than 100 µM; in experiment [9] it was 72.7 µM; in experiment [10], 27.5 µM. Moreover, the TGI in experiment [1] was 90.3 µM; in experiment [2], greater than 100 µM; in experiment [3], greater than 100 µM; in experiment [4], greater than 100 µM; in [5], greater than 100 µM; in experiment [6] it was greater than 100 µM. Besides, the TGI in experiment [7], in [8], in experiment [9] and in experiment [10] was greater than 100 µM in each case.

`COc1cc(CCNC(=O)OC(C)(C)C)c2c(c1OC)SSSSS2`: the GI50 was 5.34 µM in [1]; 5.51 µM in experiment [2]; 3.71 µM in [3]; 2.2 µM in experiment [4]; 2.45 µM in [5]; 2.48 µM in experiment [6]. The GI50 is 1.77 µM in experiment [7], 3.14 µM in experiment [8], 4.48 µM in experiment [9] and 2.18 µM in experiment [10]. Moreover, the TGI in experiment [1] is 65.2 µM; in experiment [2], greater than 100 µM; in experiment [3] it was 15.3 µM; in [4], 4.63 µM; in experiment [5] it was 21.3 µM; in experiment [6] it was 4.94 µM. Also, the TGI in experiment [7] was 5.06 µM; in experiment [8] it was 9.23 µM; in experiment [9] it was 32.8 µM; in experiment [10], 5.47 µM.

On to `O=C1CC(N2C(=O)/C(=C/C(Cl)=C\c3ccc([N+](=O)[O-])cc3)SC2=S)C(=O)N1c1ccc(O)cc1` (stereo not given), for which the GI50 in [1] was 0.385 µM; in experiment [2] it was 0.751 µM; in experiment [3] it was 2.26 µM; in [4], 1.2 µM; in experiment [5] it was 0.603 µM; in [6], 2.31 µM. The GI50 in experiment [7] is 1.21 µM; in [8] it was 1.91 µM; in [9], 0.394 µM; in experiment [10] it was 1.35 µM. For the same molecule, the TGI in experiment [1] worked out at 3.87 µM; in experiment [2] it was 2.14 µM; in [3], 6.63 µM; in experiment [4], 2.68 µM; in experiment [5], 9.55 µM; in experiment [6] it was 5.79 µM. For the same molecule, the TGI in [7] turned out to be 10.7 µM; in experiment [8], 3.69 µM; in experiment [9] it was 4.97 µM; in experiment [10], 2.79 µM.
